Measurements reported in patent publication US10265321B2, “Uses of salt-inducible kinase (SIK) inhibitors” (Dana-Farber Cancer Institute, Inc., priority 2014, dated 2019).

What was measured:
Src = Src (Homo sapiens, UniProt P12931); settings: cited from earlier work
[1] = system: CD11c+ CX3CR1hi myeloid cells and CD11c+ CX3CR1− DCs from the small intestine; test: Cytokine production by lamina propria gut myeloid cells; type: cell-based, mouse; settings: 0.3 μM, 30 min pre-treatment
Procedure: (§1) Bone marrow-derived DCs were differentiated from C57BL/6 bone marrow in the presence of GM-CSF-conditioned media. CD11c^+ CX3CR1^hi myeloid cells and CD11c^+ CX3CR1^− DCs were isolated from the small intestine lamina propria of Cx3cr1^eGFP/+ mice (12). Detection of cell-surface Thy1.1 expression on BMDCs from 10BiT reporter mice was conducted as described previously (24). Cell viability was estimated by change in total cellular ATP levels using CellTiterGlo assays (Promega). Preparation of recombinant SIK proteins and IC50 measurements were conducted as described previously (21). Total RNA was extracted using a NucleoSpin 96 RNA isolation kit (Macherey-Nagel) followed by cDNA synthesis and multiplex RT-PCR using a microfluidic dynamic array (Fluidigm). The concentrations of TNF-α, IL-6, IL-10, IL-12p40, IL-1β and RANTES in culture supernatants were detected using a FlexSet Cytometric bead array (BD Biosciences). Alternatively, IL-10 secretion was quantified using ELISA (BD Biosciences) or AlphaLISA (PerkinElmer) assays. NO production was estimated based on nitrate content in culture medium using the Greiss reagent.
After stimulation of cells with microbial ligands, the culture medium was removed, clarified by centrifugation for 10 min at 14,000×g, and the concentration of TNF-α, IL-6, IL-10, IL-12p40, IL-1β and RANTES were measured using FlexSet Cytokine Bead Array (BD Biosciences) according to the manufacturer's instructions. Where indicated, ELISAs were used to detect IL-10 and IL-12p70 (BD Biosciences) according to the manufacturer's instructions. NO production was estimated based on nitrate content in culture medium using the Greiss reagent as described previously (Miletic A V, et al. (2007) Vav proteins control MyD88-dependent oxidative burst. Blood 109(8):3360-3368).
CX3CR1GFP/+ mice were euthanized and intestines cut into 3-4 pieces before inversion onto polyethylene tubes (Becton Dickinson). Intestinal fragments were washed with calcium- and magnesium-free PBS (Lonza), and mucus was removed with 1 mM DTT. […]

BMDCs = test: Multiplex qPCR of transcripts in stimulated BMDCs; type: cell-based, mouse; settings: 2 days pre-treatment, 4 hr LPS, R848 or zymosan
Procedure: as §1
C57BL/6 mice were euthanized and bone marrow harvested from femurs and tibias as described previously (Graham D B, et al. (2007) An ITAM-signaling pathway controls cross-presentation of particulate but not soluble antigens in dendritic cells. The Journal of experimental medicine 204(12):2889-2897). BMDCs were differentiated DMEM supplemented with 2 mM GlutaMAX, 10% (vol/vol) FBS, penicillin, streptomycin and 2% mouse GM-CSF conditioned media derived from TOPO cells. Cultures were differentiated for 7 days and routinely analyzed for >90% CD11c (APC anti-CD11c clone HL3; BD Biosciences) positivity by flow cytometry before use in experiments. Lentiviral transduction of bone marrow cultures was conducted by addition of 293T culture supernatants containing lentiviral particles encoding the CREB dependent luciferase reporter construct or CRTC3 targeting or control shRNAs one day post-isolation. Stable integration of lentiviral shRNA constructs was selected by addition of puromycin (3 μg/mL) on day 4 post-transduction. After 2 days, stably transduced BMDCs were released from selection and used in subsequent assays. […]
Total RNA was extracted using a NucleoSpin 96 RNA isolation kit (Macherey-Nagel). […] Relative gene expression was calculated from Ct values and normalized against ACTB mRNA levels as described previously (Pfaffl MW (2001) A new mathematical model for relative quantification in real-time RT-PCR. Nucleic acids research 29(9):e45). […]

SGK = test: Protein kinase assay against SGK (selectivity); type: biochemical; settings: DMSO set to 100%

Src, sequence (P12931 whole entry, species assumed): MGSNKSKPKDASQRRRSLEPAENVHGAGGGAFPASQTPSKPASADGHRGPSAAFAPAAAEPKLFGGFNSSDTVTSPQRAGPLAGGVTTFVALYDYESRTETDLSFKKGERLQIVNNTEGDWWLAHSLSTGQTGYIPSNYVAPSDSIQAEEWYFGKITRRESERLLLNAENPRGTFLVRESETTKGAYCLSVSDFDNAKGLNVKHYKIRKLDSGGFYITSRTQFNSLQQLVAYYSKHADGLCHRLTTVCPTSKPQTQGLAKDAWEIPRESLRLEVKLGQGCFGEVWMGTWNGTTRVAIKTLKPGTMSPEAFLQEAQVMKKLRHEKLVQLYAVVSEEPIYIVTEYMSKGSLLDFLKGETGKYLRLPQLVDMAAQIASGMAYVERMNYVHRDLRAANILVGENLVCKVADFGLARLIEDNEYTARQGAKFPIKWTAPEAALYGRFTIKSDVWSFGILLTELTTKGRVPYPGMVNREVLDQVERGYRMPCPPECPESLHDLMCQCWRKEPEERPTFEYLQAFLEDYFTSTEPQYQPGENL

Row | Activity of protein kinase treated with 0.1 μM of I-1 (% control (DMSO)) SGK (SGK; 0.1 μM) | Activity of protein kinase treated with 1 μM of I-1 (% control (DMSO)) SGK (SGK; 1 μM) | SMILES | Src activity remaining (Src) | IL-10 production by CD11c+ CX3CR1hi cells ([1]; LPS or zymosan 18 hr) | secretion of TNF-α by gut myeloid cell subsets ([1]; both subsets) | production of IL-6 or RANTES by gut myeloid cell subsets ([1]; either subset) | IL-10 mRNA levels (BMDCs) | abundance of Arg1 and Nos2 transcripts (BMDCs)
1 | – | – | COc1ccc(N(C(=O)Nc2c(C)cccc2C)c2cc(Nc3ccc(N4CCN(C)CC4)cc3)ncn2)c(OC)c1 [HG-9-91-01] | less than 4% | enhanced IL-10 production | reduced secretion of TNF-α | not affected | robustly enhanced | significantly blunted
2 | 96 % control (DMSO) | 100 % control (DMSO) | Cc1cccc(C)c1NC(=O)N1C/C=C\COc2cccc(c2)Nc2cc1ncn2 [I-1] | – | – | – | – | – | –
